Patent US20090155209A1, “NOVEL MACROCYCLIC INHIBITORS OF HEPATITIS C VIRUS REPLICATION” (priority 2007, published 2009)

Columns and labels:
NS3-NS4 [1] = biological target: T1, NS3-NS4 (Hepatitis C virus genotype 1a, UniProt P27958); assay: cell-based; conditions: EC50, NS3-NS4 activity
NS3-NS4 [2] = biological target: T1, NS3-NS4; assay: NS3-NS4 activity, IC50 (Example 37, Table 8); type: biochemical

T1 sequence (P27958 1027-1657): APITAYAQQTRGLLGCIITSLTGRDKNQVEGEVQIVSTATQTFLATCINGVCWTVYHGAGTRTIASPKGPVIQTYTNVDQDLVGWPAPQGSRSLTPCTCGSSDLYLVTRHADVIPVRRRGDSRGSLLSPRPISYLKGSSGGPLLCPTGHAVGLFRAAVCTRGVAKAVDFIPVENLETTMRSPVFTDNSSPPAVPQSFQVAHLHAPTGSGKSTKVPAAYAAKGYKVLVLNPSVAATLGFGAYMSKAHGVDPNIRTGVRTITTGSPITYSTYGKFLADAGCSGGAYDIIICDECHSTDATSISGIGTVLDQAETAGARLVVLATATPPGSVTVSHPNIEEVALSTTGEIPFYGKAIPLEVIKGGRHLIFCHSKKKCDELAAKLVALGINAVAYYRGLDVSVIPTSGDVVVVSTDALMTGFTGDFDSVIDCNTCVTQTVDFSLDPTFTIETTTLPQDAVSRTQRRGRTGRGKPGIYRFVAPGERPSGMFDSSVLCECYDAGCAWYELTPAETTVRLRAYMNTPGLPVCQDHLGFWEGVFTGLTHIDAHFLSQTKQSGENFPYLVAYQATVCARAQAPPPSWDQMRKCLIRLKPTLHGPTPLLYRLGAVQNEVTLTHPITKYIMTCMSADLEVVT
T1 sequence (P27958 1658-1711): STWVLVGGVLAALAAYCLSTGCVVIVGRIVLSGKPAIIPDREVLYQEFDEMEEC

`CN(C(=O)N[C@H]1CCCCC/C=C\[C@@H]2C[C@@]2(C(=O)NS(=O)(=O)c2c(F)cccc2F)NC(=O)[C@@H]2C[C@@H](OC(=O)N3Cc4cccc(F)c4C3)CN2C1=O)C(C)(C)C` [Compound 362] was tested, and the EC50 (NS3-NS4 [1]) was 100 to 1000 nM and the IC50 (NS3-NS4 [2]) was < 100 nM.
`CC(C)(C)OC(=O)N[C@H]1CCCCC/C=C\[C@@H]2C[C@@]2(C(=O)NS(=O)(=O)Cc2c(F)cccc2F)NC(=O)[C@@H]2C[C@@H](OC(=O)N3Cc4cccc(F)c4C3)CN2C1=O` [Compound 521] was tested, and the EC50 (NS3-NS4 [1]) was < 100 nM and the IC50 (NS3-NS4 [2]) was < 100 nM.
`CC(=O)O[C@@H]1C[C@H]2C(=O)N[C@]3(C(=O)NS(=O)(=O)C4CC4)C[C@H]3/C=C\CCCCC[C@H](Nc3nc(-c4ccc(F)cc4)cs3)C(=O)N2C1` [Compound 233] was tested, and the EC50 (NS3-NS4 [1]) was 100 to 1000 nM and the IC50 (NS3-NS4 [2]) was < 100 nM.
For `CN(C(=O)N[C@H]1CCCCC/C=C\[C@@H]2C[C@@]2(C(=O)NS(=O)(=O)C2(C)CC2)NC(=O)[C@@H]2C[C@@H](OC(=O)N3Cc4cccc(F)c4C3)CN2C1=O)C(C)(C)C` [Compound 440], the EC50 (NS3-NS4 [1]) was < 100 nM and the IC50 (NS3-NS4 [2]) was < 100 nM.
For `CC(C)CONC(=O)[C@@]12C[C@H]1/C=C\CCCCC[C@H](NC(=O)OC(C)(C)C)C(=O)N1C[C@H](OC(=O)N3Cc4cccc(F)c4C3)C[C@H]1C(=O)N2` [Compound 719], the EC50 (NS3-NS4 [1]) was < 100 nM and the IC50 (NS3-NS4 [2]) was < 100 nM.
In the case of `O=C(N[C@H]1CCCCC/C=C\[C@@H]2C[C@@]2(C(=O)NS(=O)(=O)C2CC2)NC(=O)[C@@H]2C[C@@H](OC(=O)N3Cc4cccc(F)c4C3)CN2C1=O)OC1CCOC1` (stereo partly shown) [Compound 412], the EC50 (NS3-NS4 [1]) is reported as < 100 nM and the IC50 (NS3-NS4 [2]) is reported as < 100 nM.
`CC(C)(C)OC(=O)N[C@H]1CCCCCCC[C@@H]2C[C@@]2(C(=O)NOCC2CC2)NC(=O)[C@@H]2C[C@@H](OC(=O)N3Cc4cccc(F)c4C3)CN2C1=O` [Compound 813] was tested, and the EC50 (NS3-NS4 [1]) was < 100 nM and the IC50 (NS3-NS4 [2]) was < 100 nM.
In the case of `CC1(OC(=O)N[C@H]2CCCCC/C=C\[C@@H]3C[C@@]3(C(=O)NS(=O)(=O)C3CC3)NC(=O)[C@@H]3C[C@@H](OC(=O)N4Cc5cccc(F)c5C4)CN3C2=O)CC1` [Compound 404, (2R,6S,13aS,14aR,16aS,Z)-14a-(cyclopropylsulfonylcarbamoyl)-6-((1-methylcyclopropoxy)carbonylamino)-5,16-dioxo-1,2,3,5,6,7,8,9,10,11,13a,14,14a,15,16,16a-hexadecahydrocyclopropa[e]pyrrolo[1,2-a][1,4]diazacyclopentadecin-2-yl 4-fluoroisoindoline-2-carboxylate], the EC50 (NS3-NS4 [1]) is reported as < 100 nM and the IC50 (NS3-NS4 [2]) is reported as < 100 nM.
In the case of `CONC(=O)[C@@]12C[C@H]1/C=C\CCCCC[C@H](NC(=O)OC(C)(C)C)C(=O)N1C[C@H](OC(=O)N3Cc4cccc(F)c4C3)C[C@H]1C(=O)N2` [Compound 104, (2R,6S,13aS,14aR,16aS,Z)-6-(tert-butoxycarbonylamino)-14a-(methoxycarbamoyl)-5,16-dioxo-1,2,3,5,6,7,8,9,10,11,13a,14,14a,15,16,16a-hexadecahydrocyclopropa[e]pyrrolo[1,2-a][1,4]diazacyclopentadecin-2-yl 4-fluoroisoindoline-2-carboxylate], the EC50 (NS3-NS4 [1]) is reported as 1000 to 10000 nM and the IC50 (NS3-NS4 [2]) is reported as < 100 nM.
`CN(C(=O)N[C@H]1CCCCC/C=C\[C@@H]2C[C@@]2(C(=O)NS(=O)(=O)c2ccc(Cl)cc2)NC(=O)[C@@H]2C[C@@H](OC(=O)N3Cc4cccc(F)c4C3)CN2C1=O)C(C)(C)C` [Compound 361] was tested, and the EC50 (NS3-NS4 [1]) was < 100 nM and the IC50 (NS3-NS4 [2]) was < 100 nM.
With `CC(C)(C)OC(=O)N[C@H]1CCCCC/C=C\[C@@H]2C[C@@]2(C(=O)NS(=O)(=O)Cc2cccc(F)c2)NC(=O)[C@@H]2C[C@@H](OC(=O)N3Cc4cccc(F)c4C3)CN2C1=O` [Compound 508] the EC50 (NS3-NS4 [1]) was 100 to 1000 nM and the IC50 (NS3-NS4 [2]) was < 100 nM.
In the case of `CC(C)(C)OC(=O)N[C@H]1CCCCC/C=C\[C@@H]2C[C@@]2(C(=O)NS(=O)(=O)c2cc(Cl)c(Cl)s2)NC(=O)[C@@H]2C[C@@H](OC(=O)N3Cc4cccc(F)c4C3)CN2C1=O` [Compound 354], the EC50 (NS3-NS4 [1]) is reported as 100 to 1000 nM and the IC50 (NS3-NS4 [2]) is reported as < 100 nM.
In the case of `CCc1cnc(N[C@H]2CCCCC/C=C\[C@@H]3C[C@@]3(C(=O)NS(=O)(=O)C3CC3)NC(=O)[C@@H]3C[C@@H](OC(=O)N4Cc5cccc(F)c5C4)CN3C2=O)s1` [Compound 230], the EC50 (NS3-NS4 [1]) is reported as < 100 nM and the IC50 (NS3-NS4 [2]) is reported as < 100 nM.
With `CC(C)CN(C)C(=O)N[C@H]1CCCCC/C=C\[C@@H]2C[C@@]2(C(=O)NS(=O)(=O)C2CC2)NC(=O)[C@@H]2C[C@@H](OC(=O)N3Cc4cccc(F)c4C3)CN2C1=O` [Compound 437] the EC50 (NS3-NS4 [1]) was < 100 nM and the IC50 (NS3-NS4 [2]) was < 100 nM.
For `CC(C)(C)OC(=O)N[C@H]1CCCCC/C=C\[C@@H]2C[C@@]2(C(=O)NS(=O)(=O)c2c(F)cccc2F)NC(=O)[C@@H]2C[C@@H](OC(=O)N3Cc4cccc(F)c4C3)CN2C1=O` [Compound 306], the EC50 (NS3-NS4 [1]) was 100 to 1000 nM and the IC50 (NS3-NS4 [2]) was < 100 nM.
With `CC(C)(C)OC(=O)N[C@H]1CCCCC/C=C\[C@@H]2C[C@@]2(C(=O)NS(=O)(=O)c2cc(Cl)cs2)NC(=O)[C@@H]2C[C@@H](OC(=O)N3Cc4cccc(F)c4C3)CN2C1=O` [Compound 536] the EC50 (NS3-NS4 [1]) was < 100 nM and the IC50 (NS3-NS4 [2]) was < 100 nM.
With `Cc1ccc(CS(=O)(=O)NC(=O)[C@@]23C[C@H]2/C=C\CCCCC[C@H](NC(=O)OC(C)(C)C)C(=O)N2C[C@H](OC(=O)N4Cc5cccc(F)c5C4)C[C@H]2C(=O)N3)cc1` [Compound 515] the EC50 (NS3-NS4 [1]) was < 100 nM and the IC50 (NS3-NS4 [2]) was < 100 nM.
